Laboratory results taken from paper PMC5838563, “Compounds producing an effective combinatorial regimen for disruption of HIV‐1 latency” (EMBO Molecular Medicine, 2017).
Like-named read-outs stand apart in the source and are kept apart here.

Legend:
[1] = system: latent HIV‐1 provirus in resting CD4^+ T cells from HIV‐1‐infected patients; test: Supernatant HIV‐1 RNA from resting CD4+ T cells of patients (RT–qPCR); format: cell-based; conditions: 24 h
Method: For this analysis, we purified resting CD4^+ (rCD4^+) T lymphocytes from pools of patient samples by two‐step negative selection (Appendix Table S3). […] Purified rCD4^+ T cells were treated with 30 μM of each PH compound for 24 h, and RNA from the culture supernatants was analyzed by one‐step RT–qPCR, where results are presented as copy numbers of the virion/ml. […] Based on its capability for reactivating latent provirus at multiple chromosomal locations in cell lines, its negligible toxic effect, and that it produces the most robust reactivation of virus from patient samples, we focused our subsequent analysis on this compound (Table 1).
Figure 8 Effect of PH compounds on expression of HIV provirus in latently infected cells from patients Resting CD4^+ T cells purified from patient samples (n = 18, Appendix Table S3) were treated with 30 μM of each PH compound for 24 h, and HIV‐1 RNA was measured in culture supernatants. Results are presented as HIV virions/ml (mean ± SE). LOD indicates the limit of detection, 100 copies/ml culture supernatant. TEXT PRINTED IN THE PICTURE: PMA: Supernatant HIV-1 mRNA (Copies/ml): 308929.80 (50 nM) | PH01: Supernatant HIV-1 mRNA (Copies/ml): 5348.04 (Single Concentration (30μM)) | PH02: Supernatant HIV-1 mRNA (Copies/ml): 17624.53 (Single Concentration (30μM)) | PH03: Supernatant HIV-1 mRNA (Copies/ml): 4714.11 (Single Concentration (30μM)) | PH04: Supernatant HIV-1 mRNA (Copies/ml): 7134.68 (Single Concentration (30μM)) | PH05: Supernatant HIV-1 mRNA (Copies/ml): 587.19 (Single Concentration (30μM))
HIV‐1 RNA was measured from 1 × 10^6 resting CD4^+ T lymphocytes treated with 30 μM of each compound. Extracellular RNA was isolated using the ZR Viral RNA Kit (Zymo Research) and total cellular mRNA using the RNeasy MinElute cleanup kit (Qiagen). HIV‐1 RNA concentrations were assayed in one‐step RT–qPCRs using the iTaq™ universal SYBR Green one‐step kit (BIO‐RAD) with the HIV‐1 LTR‐specific primers, AGCCGCCTAGCATTTCATC and […]. RNA copy number was calculated using a standard curve generated from titrated infections with RGH‐PGK virus (Dahabieh et al, 2013). Reproducibility of RT–qPCR analysis was confirmed using a second set of primers within HIV‐1 p24 Gag, AGCAGCCATGCAAATGTTA, […]. HIV‐1 RNA determinations were normalized to GAPDH RNA measured using the primers […] and […].

[2] = system: HIV‐1 LTR (Jurkat^Tat LTR‐luciferase cell line); test: Jurkat^Tat LTR‐luciferase reporter assay for HIV‐1 latency reversal; format: cell-based; conditions: for EC50: Human immunodeficiency virus 1, 24 h treatment, percent activation relative to PMA; for latency‐reversing activity of PH02 analogs compared with PH02: 24 h, also in Jurkat^Tat LTR‐DsRed clones #11 and #131
Method: Activity of compounds identified for latency‐reversing activity in the primary screens was further validated by examining the effect of a single concentration (7 μM) on an alternative reporter cell line, bearing an integrated HIV‐1 reporter virus where luciferase expression is produced from the 5′ LTR, in cells constitutively expressing the viral TAT protein (Fig 2A), referred to as Jurkat^Tat LTR‐luciferase. Importantly, this cell line has the HIV‐1 reporter virus integrated at a different chromosomal location than that of the A1 J‐Lat cell line and also enables validation of provirus reactivation with a second enzymatic luciferase assay. In these assays, after 24‐h treatment we observed 10 compounds that produced significant induction of luciferase activity, including two compounds from the KD2 library, three from the CCBN library and five compounds from the DIVERSet. Compounds that produced significant effects in these secondary assays were re‐ordered from their respective suppliers and examined in more detail using the HIV‐luciferase reporter cell line. […] These five compounds represent diverse chemical structures (Fig 2G).
Figure 2 Concentration–response analysis for five selected PH compounds • A Schematic representation of the pTY‐LAI‐luciferase reporter virus used in secondary screening assays, where luciferase expression is under the control of the 5′ LTR, in cloned lines derived from Jurkat^TAT cells bearing single‐copy integrants. • B–F Luciferase activity was measured from reporter cells treated for 24 h with the indicated compound concentrations. Results are presented as percent activation relative to PMA‐treated controls. The EC50 for each compound is indicated. Mean and standard error (SE) for the results are determined from three biological replicates (n = 3) and technical duplicates. • G Illustration of chemical structures of the PH compounds.
Luciferase assays were performed in 96‐well plate format, where 100 μl of cell culture containing 1 × 10^5 luciferase reporter cells was plated per well. After the indicated time of treatment, 100 μl of luciferase assay reagent (SuperlightTM luciferase reporter Gene Assay Kit; BioAssay Systems) was added per well, and incubated for 2 min at RT, when luciferase activity was measured on a VictorTM X3 Multilabel Plate Reader. Results were presented relative to the positive control samples treated with 50 nM PMA. T‐cell activation was measured using 1 × 10^5 wild‐type Jurkat^Tat cells or PBMCs purified from healthy donors, treated as indicated. After 24 h, cells were incubated with 2.4G2 antibody to block nonspecific binding and further stained with 5 μl of anti‐human CD69 or an IgG1 isotype control antibody conjugated with PE‐Cy^Tm7. After 30‐min incubation on ice, the cells were washed twice with PBS and analyzed using a Becton Dickinson LSRII flow cytometer (BD Biosciences) to determine mean fluorescence intensity (MFI), using FlowJo software. The mean fluorescence intensity (MFI) obtained from cells stained with IgG isotype antibody control was subtracted from that from cells stained with CD69 to compensate for background (MFICD69‐MFIIgG). IL‐2 production was measured in cell culture supernatants using a human IL‐2 ELISA System (eBioscience). Jurkat^Tat clones bearing integrations of the mini‐dual HIV reporter virus, clone #11 and #131, were plated at 1 × 10^5 per well in a 96‐well plate format, treated for the indicated time, washed with 1 ml PBS, and then transferred into flow cytometry tubes, where they were fixed with freshly made 1% formaldehyde for 10 min at RT prior to analysis by flow cytometry. Results are presented as ΔMFI, where MFI obtained from parental Jurkat^Tat cells undergoing the same treated was subtracted from the MFI corresponding to each cell line; ΔMFI = (MFI compound‐treated cell line 131/11 − MFI compound‐treated WT Jurkat^Tat cells).

[3] = system: HIV‐1 LTR (Jurkat^Tat LTR‐DsRed clone #11); test: mdHIV LTR‐DsRed reporter assay, clone #11; format: cell-based; conditions: PMA stimulation, of eGFP expressing cells
Description: HIV‐1 tends to integrate into actively transcribed regions of the host genome (Jordan et al, 2003; Lewinski et al, 2006; Ikeda et al, 2007). Each HIV‐1‐infected patient carries viral DNA integrated at different chromosomal locations, and as we have previously shown, the site of viral integration influences how latently infected T cells respond to different stimuli (Hashemi et al, 2016). Therefore, an ideal LRA should be capable of disrupting latency in cell models carrying integrated viral reporters at multiple different regions within the host genome. To assess this capability for the PH compounds, we used two additional previously described cell lines, designated Jurkat^Tat LTR‐DsRed clones #11, and #131, that carry a mini‐dual fluorescent HIV‐1 LTR reporter (mdHIV) at different chromosomal locations. The minivirus mdHIV has two fluorescent reporters in which DsRed expression is driven from the 5′ LTR, and eGFP is constitutively expressed from an internal EIF‐1α promoter (Fig 5A). […]
Figure 5 Effect of PH02 on HIV provirus integrated at different chromosomal locations • A The effect of PH compounds was analyzed using clonal lines bearing single‐copy integrations of the mini‐dual fluorescent HIV‐1 LTR reporter, md‐HIV, where GFP is constitutively expressed from the EIF‐1α internal promoter, and DsRed from the 5′ LTR. • B Fluorescence‐activated cell sorting (FACS) of cells bearing md‐HIV provirus indicates expression of EIF‐1α‐GFP and LTR‐dsRed. Stimulation of the md‐HIV lines generally causes a shift of the fluorescence profile from GFP^+/DsRed^− toward GFP^+/DsRed^+. • C, D Clone 11 or clone 131 was treated with the indicated concentrations of PH02 (left panels) or PH02 in combination with 10 nM PEP005 (right panels) for 24 h and cells analyzed by flow cytometry. Results presented as Δmean fluorescence intensity (ΔMFI) of DsRed expression and fold increase in DsRed expression for solo and combination treatments, respectively. Mean and SE are determined from three biological replicates (n = 3) and technical duplicates. […]

HIV reservoir = conditions: cited from earlier work

With `Cn1c(C=Cc2c[nH]c3ccccc23)nc2ccccc2c1=O` [PH01, 2‐[2‐(1H‐indol‐3‐yl)vinyl]‐3‐methyl‐4(3H)‐quinazolinone] the “Supernatant HIV-1 mRNA” value ([1]; 30 μM, LOD 100 copies/ml) was 5348.04 Copies/ml and the EC50 [2] was 141 nM.
In the case of `COc1ccccc1N(/C=C1\Sc2ccccc2C1=O)C(C)=O` [PH02a, N-(2-methoxyphenyl)-N-[(3-oxo-1-benzothien-2(3H)-ylidene)methyl]acetamide], the “latency‐reversing activity of PH02 analogs compared with PH02” value [2] is reported as “significant reduction”.
In the case of `COc1ccccc1N(C=O)/C=C1\Sc2ccccc2C1=O` [PH02b, (2-methoxyphenyl)[(3-oxo-1-benzothien-2(3H)-ylidene)methyl]formamide], the “latency‐reversing activity of PH02 analogs compared with PH02” value [2] is reported as “significant reduction”.
In the case of `Cl.Nc1ccc(-c2ccc3ccccc3n2)cc1` [PH03, 2‐(4‐aminophenyl)quinoline hydrochloride], the “Supernatant HIV-1 mRNA” value ([1]; 30 μM, LOD 100 copies/ml) is reported as 4714.11 Copies/ml and the EC50 [2] is reported as 1250 nM.
With `Cc1cc(I)cnc1NC(=S)NC(=O)c1ccco1` [PH04, N‐{[(5‐iodo‐3‐methyl‐2‐pyridinyl)amino]carbonothioyl}‐2‐furamide] the “Supernatant HIV-1 mRNA” value ([1]; 30 μM, LOD 100 copies/ml) was 7134.68 Copies/ml and the EC50 [2] was 2560 nM.
In the case of `COc1cccc(-n2nnc(C(=O)Nc3ccc(C)cc3)c2C)c1` [PH05, 1‐(3‐methoxyphenyl)‐5‐methyl‐N‐(4‐methylphenyl)‐1H‐1,2,3‐triazole‐4‐carboxamide], the “Supernatant HIV-1 mRNA” value ([1]; 30 μM, LOD 100 copies/ml) is reported as 587.19 Copies/ml and the EC50 [2] is reported as 5900 nM.
For `CCCCCCCCCCCCCC(=O)O[C@@H]1[C@@H](C)[C@@]2(O)[C@@H](C=C(CO)C[C@]3(O)C(=O)C(C)=C[C@@H]23)[C@@H]2C(C)(C)[C@]12OC(C)=O` [PMA, phorbol 12‐myristate 13‐acetate, reference compound], the “Supernatant HIV-1 mRNA” value ([1]; 50 nM, positive control) was 308929.80 Copies/ml and the “cells producing dsRed expression upon stimulation” value [3] was ~ 40%.
In the case of `Cc1[nH]c2ccccc2c1CCNCc1ccc(/C=C/C(=O)NO)cc1` [Panobinostat], the “reduction in the HIV reservoir” value (HIV reservoir; 20 mg three times a week every other week for 8 weeks, ref Rasmussen et al, 2014) is listed as “did not produce a reduction in the HIV reservoir”.
For `O=C(CCCCCCC(=O)Nc1ccccc1)NO` [Vorinostat, suberoylanilide hydroxamic acid], the “reduction in the HIV reservoir” value (HIV reservoir; 400 mg daily for 14 days or 3 days a week for 8 weeks, ref Archin et al, 2014, Elliott et al) is listed as “did not produce a reduction in the HIV reservoir”.
